As usually defined, the IC50 is the point on the concentration scale where inhibition reaches its midpoint.

Consider 26 compounds from US12319655B2, “RAF kinase inhibitors and methods of use thereof” (Deciphera Pharmaceuticals, LLC, priority 2021, dated 2025).

One test has as its system Miapaca-2 cells. Put plainly: MiaPaca-2 Combination Cell proliferation Assay (1) with cobimetinib. Type of test: cell-based. Particulars: MiaPaca-2 cell proliferation, read-out: MiaPaca-2 Combo (1) IC50.
Another test relates to WM3629 cells. Put plainly: WM3629 Cell Proliferation Assay (1). The class given is cell-based.

As for `CC(=O)Nc1cc(-c2cc(-c3cc(NC(=O)c4ccnc(C(F)(F)F)c4)ccc3C)cc(OCCO)n2)ccn1` [Example 1, N-(3-(2′-acetamido-6-(2-hydroxyethoxy)-[2,4′-bipyridin]-4-yl)-4-methylphenyl)-2-(trifluoromethyl)isonicotinamide], the half-inhibitory concentration (IC50) in the test on Miapaca-2 cells is no more than 100 nM.

Regarding `CC(=O)Nc1cc(-c2cc(-c3cc(NC(=O)c4ccnc(C(F)(F)F)c4)c(F)cc3C)ccn2)ccn1` [Example 2], the concentration for half-maximal inhibition (IC50) in the test with Miapaca-2 cells was no more than 100 nM. Take `Cc1ccc(NC(=O)c2ccnc(C(F)(F)F)c2)cc1-c1ccnc(-c2ccnc(NC(=O)CC#N)c2)c1` [Example 39, N-(3-(2′-(2-cyanoacetamido)-[2,4′-bipyridin]-4-yl)-4-methylphenyl)-2-(trifluoromethyl)isonicotinamide]: the IC50 in the test with Miapaca-2 cells was in the range of 100 to 500 nM. For the compound `CC(=O)Nc1cc(-c2cc(-c3cc(NC(=O)c4ccnc(C(F)(F)F)c4)ccc3C)nc(N(C)C)n2)ccn1` [Example 41, N-(3-(6-(2-acetamidopyridin-4-yl)-2-(dimethylamino)pyrimidin-4-yl)-4-methylphenyl)-2-(trifluoromethyl)isonicotinamide], the IC50 in the test on Miapaca-2 cells was no more than 100 nM.

In the case of `Cc1ccc(NC(=O)c2ccnc(C(C)(C)C#N)c2)cc1-c1cncc(-c2ccnc3c2CC(=O)N3)n1` [Example 43], the IC50 in the test on Miapaca-2 cells lay within 100 to 500 nM.

For the compound `CNC(=O)c1cc(-c2cncc(-c3cc(NC(=O)c4ccnc(C(F)(F)F)c4)ccc3C)n2)ccn1` [Example 47], the IC50 with Miapaca-2 cells is 100 to 500 nM.

Consider `CNC(=O)c1cc(-c2cc(-c3cc(NC(=O)c4ccnc(C(F)F)c4)ccc3C)ccn2)ccn1` [Example 48], for which, in the test on Miapaca-2 cells, the IC50 was no more than 100 nM.

For `CNC(=O)c1cc(-c2cc(-c3cc(NC(=O)c4ccnc(C(C)(C)C#N)c4)ccc3C)ccn2)ccn1` [Example 50], in the test on Miapaca-2 cells, the half-maximal inhibitory concentration (IC50) is no more than 100 nM. Consider `CNC(=O)c1cc(-c2cc(-c3cc(NC(=O)c4cccc(C(F)(F)F)c4)cnc3C)ccn2)ccn1` [Example 52], for which the IC50 in the test with WM3629 cells is no more than 100 nM.

On to `Cc1ccc(NC(=O)c2ccnc(C(F)(F)F)c2)cc1-c1ccnc(-c2ccnc(NC(=O)C3CC3)c2)c1` [Example 54], for which, in the test with Miapaca-2 cells, the IC50 is no more than 100 nM.

For the compound `COCC(=O)Nc1cc(-c2cc(-c3cc(NC(=O)c4ccnc(C(C)(C)C#N)c4)ccc3C)ccn2)ccn1` [Example 61], the IC50 with Miapaca-2 cells is no more than 100 nM. As to `Cc1ccc(NC(=O)c2ccnc(C(F)(F)F)c2)cc1-c1cccc(-c2ccnc(NC(=O)CC#N)c2)c1` [Example 62], the IC50 in the test on Miapaca-2 cells fell in the range of 100 to 500 nM. For `Cc1ccc(NC(=O)c2ccnc(C(C)(C)C#N)c2)cc1-c1ccnc(-c2ccnc(NC(=O)CC#N)c2)c1` [Example 63], the concentration for half-maximal inhibition (IC50) with Miapaca-2 cells is 100 to 500 nM. As for `CCOc1ncc(-c2cc(NC(=O)c3ccnc(C(F)(F)F)c3)ccc2C)cc1-c1ccnc(NC(C)=O)c1` [Example 68], in the test on Miapaca-2 cells, the IC50 was no more than 100 nM. Regarding `CCOc1ncc(-c2cc(NC(=O)c3ccnc(C(F)(F)F)c3)ccc2C)cc1-c1ccnc(C(=O)NC)c1` [Example 69], the IC50 in the test on WM3629 cells was no more than 100 nM.

Regarding `CNC(=O)c1cc(-c2cc(-c3cc(C(=O)Nc4ccnc(C(C)(C)C#N)c4)ccc3C)ccn2)ccn1` [Example 74], the concentration for half-maximal inhibition (IC50) in the test with Miapaca-2 cells was no more than 100 nM. As to `Cc1ccc(NC(=O)c2ccnc(C(C)(C)C#N)c2)cc1-c1cccc(-c2cc(NC(=O)C3CC3)ncn2)c1` [Example 77], the IC50 with WM3629 cells and with Miapaca-2 cells was no more than 100 nM each time.

Turning to `CNC(=O)c1cc(-c2nccc(-c3cc(NC(=O)c4ccnc(C(C)(C)C#N)c4)ccc3C)n2)ccn1` [Example 78], in the test on Miapaca-2 cells, the IC50 is no more than 100 nM. Consider `CC(=O)Nc1cc(-c2cccc(-c3cc(NC(=O)c4ccnc(C(C)(C)C#N)c4)ccc3C)c2)ncn1` [Example 79], for which the concentration for half-maximal inhibition (IC50) in the test with Miapaca-2 cells was no more than 100 nM. Regarding `Cc1ccc(NC(=O)c2ccnc(C(F)(F)F)c2)cc1-c1cccc(-c2cc(NC(=O)C3CC3)ncn2)c1` [Example 80], the 50% inhibitory concentration (IC50) with WM3629 cells and in the test on Miapaca-2 cells was no more than 100 nM each time. `CNC(=O)c1cc(-c2cncc(-c3cc(NC(=O)c4ccnc(C(C)(C)C#N)c4)ccc3C)n2)ccn1` [Example 86]: in the test on Miapaca-2 cells, the IC50 is no more than 100 nM. For `COCC(=O)Nc1cc(-c2nccc(-c3cc(NC(=O)c4ccnc(C(C)(C)C#N)c4)ccc3C)n2)ccn1` [Example 88], the IC50 in the test with Miapaca-2 cells was no more than 100 nM. As to `CC(=O)Nc1cc(-c2cc(-c3cc(NC(=O)c4ccnc(C(C)(C)C#N)c4)ccc3C)nc(C)n2)ccn1` [Example 89], the IC50 in the test with Miapaca-2 cells is no more than 100 nM. For `Cc1ccc(NC(=O)c2ccnc(C(C)(C)F)c2)cc1-c1cncc(-c2cc(NC(=O)C3CC3)ncn2)c1` [Example 394], the IC50 in the test on WM3629 cells is no more than 100 nM; with Miapaca-2 cells it was 1000 to 10000 nM. As to `Cc1ccc(NC(=O)c2ccnc(C3(C#N)CC3)c2)cc1-c1cncc(-c2cc(NC(=O)C3CC3)ncn2)c1` [Example 395], the IC50 in the test with WM3629 cells is no more than 100 nM. `Cc1ccc(NC(=O)c2ccnc(C(F)(F)F)c2)cc1-c1cncc(-c2cc(NC(=O)C3CC3)ncn2)c1` [Example 397]: in the test on WM3629 cells, the IC50 was no more than 100 nM.
